# Experimental data: patent US20250340941A1, “ASSAY AND METHODS FOR DRUG DISCOVERY” (BIOVIE INC., priority 2023, published 2025)
# Tests used:
# [1] = tested on: TNFR1 phosphorylation in THP-1 human monocytes; experiment: TNFa-stimulated TNFR1 ERK-dependent phosphorylation, Western blot densitometry; format: cell-based; conditions: THP-1, TNFa 50 ng/mL
# Experimental: THP-1 monocytes were treated with 100 nM NE3107, 1 uM IKK-16 (IKK inhibitor), 1 uM Tpl2 Kinase inhibitor (TPL2i) or Vehicle (0.1% DMSO) and stimulated with TNFa 50 ng/mL. Cell lysates were collected at 0, 2, 5, 10, 15, and 30 minutes. The results are given as fold change with respect to the control following Western blotting and quantification of band intensities by densitometry scanning.
# THP-1 human monocytes were grown in complete growth medium (ATCC-formulated RPMI-1640 Medium, Catalog No. 30-2001), 2-mercaptoethanol to a final concentration of 0.05 mM and fetal bovine serum to final concentration of 10%. THP-1 human monocytes were then seeded into 10 mL complete growth medium at 0.4×10^6/mL in a T25 flask and were grown to 0.8×10^6/mL in about 1 to 2 days. The cells were then starved in 0.5% FBS RPMI for 16 h. The THP-1 monocytes were then treated with 100 nM 17α-ethynylandrost-5-ene-3ϕ3,7ϕ3,17ϕ3-triol (NE3107), 1 μM IKK-16 (IKK inhibitor), 1 μM Tpl2 Kinase inhibitor (TPL2i) or 0.1% DMSO (vehicle). Cells were stimulated with stimulated with 50 ng/mL TNFa and cell lysates were collected at 0, 2, 5, 10, 15, and 30 minutes after TNFa stimulation. Total cell lysates were subjected to Western blotting as described in Lu et al., Mol. Endocrinol. 22 (2008), 760-771. Relative band intensities were quantified by densitometry scanning. The results are given as fold change with respect to untreated cells in Table 2.
# [2] = tested on: Horvath Clock DNA methylation (DNAm); experiment: Horvath Clock DNA methylation (DNAm) epigenetic analysis of whole blood, 3-month open-label phase 2 study (NCT05007820); format: in vivo, human
# From the text: NE3107 is an oral small molecule, blood-brain permeable anti-inflammatory insulin sensitizer that binds ERK, inhibits NFKB and TNF signaling, and is in clinical studies for Probable AD (NCT04669028) and Parkinson's disease (NCT05083260). Safety, clinical, biomarker and neuroimaging results from a 3-month open-label phase 2 study of NE3107 treatment of MCI and probable AD (NCT05007820) were reported at CTAD (2022 J. Prev. Alzheimers Dis 9 S86, S140 and S27). In this example, the inventors determined the results of epigenetic clock studies from NCT05007820.
# Methods: Subjects with clinical dementia rating (CDR) 0.5-1 were consented, and whole blood was drawn, frozen and shipped for Horvath Clock DNA methylation (DNAm) epigenetic analysis (Horvath 2018 Aging 10:1758) at baseline and 3 months.
# (§1) Result: The subject's SkinBloodAge clock closely matched their chronological age at baseline (mean 71.5 vs 70.8 years). After 3 months of NE3107 (20 mg BID), the SkinBloodAge decreased by a mean of 3.3 years (Table). […] Leptin is reportedly lower in AD, and DNAmLeptin is reported to be positively correlated with metabolic parameters waist/hip ratio, BMI, CRP, insulin, glucose and triglycerides (Lu 2022 Aging 14:9884). […] DNAmPack Years is reported to be negatively correlated with time to mortality in both smokers and nonsmokers, and positively correlated with waist/hip ratio, CRP and triglycerides. Monocyte DNAm was correlated with monocyte frequency at baseline, and although it is reported to increases with chronological age, it decreased (−29%) in 77% of subjects after 3 months treatment. […]
# [3] = tested on: Monocytes; experiment: Blood monocyte frequency, 3-month open-label phase 2 study; format: in vivo, human
# Experimental: as §1
# [4] = Phase 3 trial (NM101, NCT04669028): metabolic changes, blinded assessment; format: in vivo, human
# From the text: In this example, the clinical outcomes from a Phase 3, randomized, placebo-controlled trial of NE3107 (17α-ethynylandrost-5-ene-3ϕ3,7ϕ3,17ϕ3-triol) in subjects with mild to moderate probable Alzheimer's disease.
# Recently, the roles of inflammation and insulin resistance in neurodegeneration have become better appreciated. […] We describe the rationale and design of NM101, the first randomized, multicenter Phase III clinical study to examine the safety and efficacy of 30-week treatment with NE3107 versus placebo in elderly adults with mild-to-moderate Alzheimer's disease. Patients (316) will be randomized in a 1:1 ratio. The co-primary end points measure cognitive function and functional and behavioral characteristics (Clinical Dementia Rating Scale Sum of Boxes, CDR-SB) and cognitive function (ADAS Cog12). Trial registration number: NCT04669028 (Clinicaltrials.gov).
# Subjects metabolic and correlation changes were analyzed. Many of the genes associated with LOAD (late onset Alzheimer's disease) are related to cholesterol metabolism, which is decreased in AD neuron membranes. Insulin and glycemic controls are known to be involved in neurodegeneration. […] Increased mean amplitude of glycemic excursion (MAGE from CGM) increased risk of Alzheimer's disease progression. Leptin is an anti-inflammatory, neuroprotective and is decreased in AD. […] The results are described in Tables 4 and 5.
# [5] = Phase 3 trial: imaging sub-study vMRI; format: in vivo, human; conditions: Phase 3 imaging sub-study, 23 subjects, blinded analysis; result in words
# Experimental: Subjects were analyzed using imaging sub-studies vMRI on 23 subjects. It was observed that the volume was increased in the hippocampus and amygdala. In addition, it was observed that a decreased CGIC was correlated with decreased hippocampi volume and increased MCP-1 was correlated with increased whole cortex. The results are described in FIGS. 4A-4B and Table 6.
# [6] = Phase 3 trial: FDG-PET imaging; format: in vivo, human; conditions: Phase 3, blinded analysis; subjects with a baseline whole cortex suvr <1.29, n/N
# Experimental: Subjects were analyzed using a fluorodeoxyglucose (FDG)-positron emission tomography (PET) imaging scans. FDG-PET standardized uptake value ratios (“suvr”) were increased in 14/24 subjects with a baseline whole cortex suvr <1.29. […] Cholesterol increases trended with increased Cingulate suvr. The results are described in Table 7 and FIG. 5.
# [7] = Phase 3 trial: neuropsychiatric inventory; format: in vivo, human; conditions: Phase 3, blinded analysis (NE3107 and placebo not separated)
# Experimental: Subjects were analyzed for neuropsychiatric inventory. […] An improvement in appetite was also correlated with decreased Cog12, CDR SB and ADCOMS, with increased Alzheimer's disease. A decrease in anxiety was correlated with an increase ADL and decreased CGIC. Sleep improvement was correlated with a decrease in CGIC and decreased in TNFa. The results are described in Table 8 and FIGS. 6A-6B.
# [8] = Phase 3 trial: adverse events; format: in vivo, human; conditions: blinded (IP or placebo not known)
# From the text: Of the 439 subjects enrolled in the study, 156 experienced 1 or more AEs (35.5%). There were only 43 (9.8%) related AEs with the majority 42 […] categorized as non-serious AEs by the principal investigator. The study also had very low rate of serious AEs reported. There were 12 (2.7%) reported for the duration of the study. […] As this is a blinded analysis it is not known if the subjects was on IP or placebo.
# [9] = After 3 months of NE3107 (20 mg BID), result in words
# [10] = After 3 months of NE3107 (20 mg BID), size of decrease
# [11] = Blood Cell Frequency, 3 months vs baseline, mean
# [12] = Blood Cell Frequency, NE3107 20 mg BID, 3 months, mean
# [13] = NE3107 20 mg BID, 3 months vs baseline
# [14] = NE3107 20 mg BID, 3 months vs baseline, mean
# [15] = NE3107 20 mg BID, 3 months, mean
# [16] = NE3107 20 mg BID, 3 months, n/N subjects
# [17] = Phase 3, blinded analysis (NE3107 and placebo not separated)
# [18] = Phase 3, blinded analysis, result in words
structure (smiles),measurement,setting,value
"O=C(c1ccc(Nc2nccc(-c3cc4ccccc4s3)n2)cc1)N1CCC(N2CCCC2)CC1 [IKKi, IKK-16, reference compound]",Fold vs DMSO control P-TNFR1/Actin in Gel2,"[1]; 1 μM, 0 min",2.09 fold
same,Fold vs DMSO control P-TNFR1/TNFR1 in Gel2,"[1]; 1 μM, 0 min",2.92 fold
same,Fold vs DMSO control P-TNFR1/Actin in Gel2,"[1]; 1 μM, 15 min",0.92 fold
same,Fold vs DMSO control P-TNFR1/TNFR1 in Gel2,"[1]; 1 μM, 15 min",0.59 fold
same,Fold vs DMSO control P-TNFR1/Actin in Gel2,"[1]; 1 μM, 30 min",0.49 fold
same,Fold vs DMSO control P-TNFR1/TNFR1 in Gel2,"[1]; 1 μM, 30 min",0.30 fold
"C#C[C@]1(O)CC[C@H]2[C@@H]3[C@@H](O)C=C4C[C@@H](O)CC[C@]4(C)[C@H]3CC[C@@]21C [NE3107, 17α-ethynylandrost-5-ene-3ϕ3,7ϕ3,17ϕ3-triol]","DNAmCD4Tcell, Change (%)",[2]; 3 months vs baseline,(18%)
same,"DNAmCD8Tcell, Change (%)",[2]; 3 months vs baseline,(12%)
same,"DNAmGranulocyte, Change (%)",[2]; 3 months vs baseline,(2.2%)
same,"DNAmNKcell, Change (%)",[2]; 3 months vs baseline,(0.5%)
same,"changes in DNAmT, DNAmNK or DNAmGran",[2]; [9],no significant changes
same,DNAmPackYears decreased by,[2]; [10],39%
same,SkinBloodAge decreased by a mean of,[2]; [10],3.3 years
same,"DNAmCD4Tcell, Change",[2]; [11],−0.033
same,"DNAmCD8Tcell, Change",[2]; [11],−0.002
same,"DNAmGranulocyte, Change",[2]; [11],−0.015
same,"DNAmNKcell, Change",[2]; [11],−0.0003
same,"DNAmCD4Tcell, 3 Months",[2]; [12],0.152
same,"DNAmCD8Tcell, 3 Months",[2]; [12],0.013
same,"DNAmGranulocyte, 3 Months",[2]; [12],0.653
same,"DNAmNKcell, 3 Months",[2]; [12],0.063
same,"DNAmPackYears, Change (%)",[2]; [13],(39%)
same,"DNAmSkinBlood, Change (%)",[2]; [13],(−4.6%)
same,"DNAmMonocytes, Change",[2]; [14],−0.022 Freq
same,"DNAmPackYears, Change",[2]; [14],−9.4
same,"DNAmSkinBlood, Change",[2]; [14],−3.3 years
same,"DNAmSkinBlood, 3 Months","[2]; NE3107 20 mg BID, 3 months, MCI/probable AD subjects (CDR 0.5-1), whole blood, mean",67.5 years
same,"DNAmMonocytes, 3 Months",[2]; [15],0.054 Freq
same,"DNAmPackYears, 3 Months",[2]; [15],14.6
same,"DNAmLeptin, Frequency (subjects with decrease)",[2]; [16],22/22
same,"DNAmMonocytes, Frequency (subjects with decrease)",[2]; [16],17/22
same,"DNAmPackYears, Frequency (subjects with decrease)",[2]; [16],21/22
same,"DNAmSkinBlood, Frequency (subjects with decrease)",[2]; [16],19/22
same,change in monocyte frequency,[3]; [9],no significant change
same,"Monocytes, Change (%)",[3]; [13],(1.5%)
same,"Monocytes, Change",[3]; [14],−0.001 Freq
same,"Monocytes, 3 Months",[3]; [15],0.085 Freq
same,Fold vs DMSO control P-TNFR1/Actin in Gel2,"[1]; 100 nM, 0 min",0.32 fold
same,Fold vs DMSO control P-TNFR1/TNFR1 in Gel2,"[1]; 100 nM, 0 min",0.27 fold
same,Fold vs DMSO control P-TNFR1/Actin in Gel2,"[1]; 100 nM, 15 min",0.79 fold
same,Fold vs DMSO control P-TNFR1/TNFR1 in Gel2,"[1]; 100 nM, 15 min",0.57 fold
same,Fold vs DMSO control P-TNFR1/Actin in Gel2,"[1]; 100 nM, 30 min",0.23 fold
same,Fold vs DMSO control P-TNFR1/TNFR1 in Gel2,"[1]; 100 nM, 30 min",0.17 fold
same,"HOMA2-% B, Change from Baseline",[4]; [17],"+13.5%, *"
same,"HOMA2-% S, Change from Baseline",[4]; [17],"−21.2%, *"
same,"Insulin, Change from Baseline",[4]; [17],+1.9 μIU/mL
same,"Leptin, V10 median",[4]; [17],29.2 ng/mL
same,"MAGE, Change from Baseline","[4]; Phase 3, blinded analysis (NE3107 and placebo not separated), from CGM",-0.57 mg/dL
same,Leptin DNAm,[4]; [18],observed to increase
same,cases of hypoglycemia,[4]; [18],no cases of hypoglycemia
same,"Cholesterol, Change from Baseline","[4]; Phase 3, mild to moderate probable AD, blinded analysis (NE3107 and placebo subjects not separated)",+3.0 mg/dL
same,vMRI volume in the hippocampus and amygdala,[5],increased
same,subjects with increased FDG-PET standardized uptake value ratios (suvr),[6],14/24
same,neuropsychiatric inventory: overall improvement in appetite,[7],−1.0
same,neuropsychiatric inventory: overall improvement in sleep,[7],−1.0
same,related AEs,"[8]; Phase 3, 439 subjects enrolled",9.8%
same,related AEs categorized as non-serious,"[8]; Phase 3, 439 subjects enrolled",0.6%
same,serious AEs reported,"[8]; Phase 3, 439 subjects enrolled",2.7%
same,subjects discontinued due to a reported AE,"[8]; Phase 3, 439 subjects enrolled",1.8%
same,subjects who experienced 1 or more AEs,"[8]; Phase 3, 439 subjects enrolled",35.5%
same,serious AEs that resulted in death,"[8]; Phase 3, count",1
